Measurements from patent publication US20200318165A1, “Rapid Identification of Microorganisms” (Board of Regents of the Nevada System of Higher Education, …, priority 2015, published 2020).

Assays:
B. subtilis = assay: Cellular uptake monitored by Transmission Electron Microscopy; type: cell-based; details: 5 μg/mL, 30 min, FIG. 3B
Method: (§1) TEM was used to examine whether the retention of C60-pyrrolidine tris acid was localized within the cytosol. Microorganisms were incubated with C60-pyrrolidine tris acid (5 μg/mL) for 30 min. Cells were pelleted by centrifugation at 5,000 rcf (5 min) and washed 5 times with DI H2O. Microorganisms were fixed in 2.5% glutaraldehyde/PBS solution for 30 min. The cells were then pelleted by centrifugation at 5,000 rcf for 5 min. The cell pellet was placed in fresh 2.5% glutaraldehyde/PBS solution at 4° C. overnight. Next, cell pellets were dehydrated by a series of acetone treatments (30% for 15 min, 50% for 15 min, 70% for 15 min, 90% for 15 min and a final treatment at 100% for 30 min, and repeated 3 times), embedded in resin (2:1 mix of propylene oxide:resin for 1 hour, 1:1 mix of propylene oxide:resin for 1 hour, 1:2 mix of propylene oxide: resin for 1 hour, 100% resin overnight, and change to fresh resin 1 h), incubated for 24 h at 37° C., sectioned (60 nm in thickness), and imaged using a Tecnai 12 TEM.
(§2) To test the hypothesis that functionalized C60-pyrrolidine tris acid internalizes within the cell, microorganisms were imaged with TEM. Both E. coli and B. subtilis were incubated with C60-pyrrolidine tris acid, washed to remove excess compound, sectioned into slices of 60 nm thickness, and then imaged by TEM. […]

E. coli = assay: as above; type: cell-based; details: 5 μg/mL, 30 min, FIG. 3A
Method: as §1, §2

[1] = Fluorescence of the probe itself without bacteria; type: physicochemical; details: excitation of 568 nm laser
Source text: Methods were developed to distinguish different species of live bacteria by functionalization of C60 with RNA oligonucleotides hybridized with reporter compounds. The signature RNA oligonucleotides are designed in accordance with the signature information on 16s ribosome RNA, which is unique to each species (Reischl et al., Clin Chem 52, 1985-1987 (2006) and Dresios et al., Journal of molecular biology 345, 681-693 (2005), each of which is hereby incorporated by reference in its entirety). The strategy to recognize a certain bacteria is shown in FIGS. 20A-20C and operates as follows: • (1) C60 molecules were functionalized with signature RNA oligonucleotides containing signature information (e.g., calling card) of a certain species. The Signature RNA oligonucleotides were typically screened through bioinformatics analysis. • (2) A reporter sequence, which is conjugated to a fluorophore, was hybridized with the signature sequence. The fluorophore was silent while hybridized but fluoresced once released. • (3) The C60 complex penetrated the bacteria and released the reporter if the bacteria contained ribosomal signature information that matches the signature RNA oligonucleotide on the C60 complex. The released reporter sequence emitted a fluorescent signal and was detected while free in the cytoplasm. […]

For C60-pyrrolidine tris acid, the “Localization in sectioned cells (TEM)” value (B. subtilis) was “localizes within the cell”, the “Localization in sectioned cells (TEM)” value (E. coli) was “localizes within the cell” and the Autofluorescence [1] was “no autofluorescence”.
